Experimental data: article PMC12751014, “Non-Catalytic Inhibitors of the p38/MK2 Interface: Repurposing Approved Drugs to Target Neuroinflammation in Alzheimer’s Disease” (Journal of Medicinal Chemistry, 2025)
“Also recorded” adds a separate entry of the source. Where no end group is shown, it is not given here.

Columns and labels:
p38/MK2 interaction [1] = molecular target: T1, p38/MK2 interaction (Homo sapiens, UniProt Q16539); experiment: TR-FRET ultra-high-throughput screening (uHTS), 1536-well, HEK293T lysate VF-p38α / GST-MK2; type: binding; design: inhibition of p38/MK2 interaction, primary screen: concentration or dose not given beside the values; settings: for 620 nm Fold over Control: fluorescence interference readout; for Pct of control: uHTS TR-FRET signal, Emory Enriched Library; for inhibition of p38/MK2 interaction, primary screen: relative to DMSO control, 1536-well
p38/MK2 interaction [2] = molecular target: T1, p38/MK2 interaction; experiment: TR-FRET assay with purified recombinant His-p38 and GST-MK2; type: binding; settings: for IC50: purified His-p38 and GST-MK2, read-out: IC50, inhibition of p38/MK2 PPI (TR-FRET, recombinant purified proteins); for inhibition at 30 µM: read-out: inhibition of p38/MK2 PPI at 30 μM, recombinant purified proteins
Protocol: ENSG00000112062, UniProt ID: Q16539-1) was cloned into a pMCSG7 vector and transformed into Escherichia coli strain BL21(DE3). […] The resuspended cells were lysed through sonication. The lysate was centrifuged for 20 min at 70,000g at 4 °C and the clarified supernatant was passed through a gravity column containing 2 mL Ni-NTA resin pre-equilibrated with equilibration buffer. The resin was then washed with 25 column volumes of equilibration buffer supplemented with 40 mM imidazole, and the protein was eluted with equilibration buffer supplemented with 200 mM imidazole. […] The purity of the enzyme was verified by sodium dodecyl sulfate-polyacrylamide gel electrophoresis (SDS-PAGE) with Coomassie staining, aliquots flash frozen in liquid nitrogen, and stored at -80 °C.

[3] = molecular target: VF-tagged p38 / His-tagged MK2 346–400 docking peptide (Homo sapiens, UniProt Q16539); experiment: Cell lysate-based TR-FRET competition assay, VF-p38 / His-MK2 346–400 docking peptide; settings: HEK293T lysate TR-FRET; read-out: IC50, binding of His-MK2 346–400 docking peptide to VF-p38
p38/MK2 interaction [4] = molecular target: T1, p38/MK2 interaction; experiment: Cell lysate-based TR-FRET (VF-p38 / GST-MK2, HEK293T lysate), dose-response; type: binding; settings: read-out: IC50, p38/MK2 PPI, cell lysate-based TR-FRET
HMC3 microglial cells = experiment: qRT-PCR of LPS-induced cytokine expression in HMC3 microglial cells; type: cell-based, human; settings: HMC3, 5 μM compound 1 h before 100 ng/mL LPS 4 h
Protocol: HMC3 cells were treated with 100 ng/mL E. coli LPS (Sigma-Aldrich, catalog no. L4005) for 4 h in DMEM media. […] Following pretreatment, iMGLs were challenged with 100 ng/mL LPS and 20 ng/mL interferon-γ (IFN-γ) for 24 h to induce an inflammatory response. At the end of the stimulation, cell lysates were collected for qPCR analysis of TNF-α […] gene expression. Total RNA isolation from cell samples was conducted using the RNeasy Plus kit (Qiagen, catalog no. 74134) according to manufacturer instructions and treated with DNase I (Invitrogen, catalog no. 18068-015). Extracted RNA was quantified using the Nanodrop One Spectrophotometer (Thermo Scientific) and then reverse-transcribed into cDNA in equal quantity (<1000 ng/reaction) with the SuperScript III System (Invitrogen, catalog no. 18080-051) following manufacturer directions. cDNA sample was treated with RNase H (Invitrogen, catalog no. 18021014) and diluted to 4 ng/μL equivalent of the starting total RNA. qPCR was performed in 96-well PCR plates (BioRad, catalog no. HSP9601) using the Realplex4Mastercycler (Eppendorf). Each reaction well combines 5 μL cDNA sample, 10 μL 2X SYBR Green Supermix (BioRad, catalog no. 1725271), 1 μL 5 μM primer mix for each target gene, and nuclease-free water up to 20 μL. […] The primer sequences used were: TNFα forward [NT], reverse [NT]-6 forward [NT], reverse [NT]-1β forward [NT], reverse [NT] Each gene was expression-normalized against the housekeeping gene GAPDH with the primer sequences: forward [NT], reverse [NT] Primers were obtained from Integrated DNA Technologies in lyophilized form. The cycler program was set to denaturation at 95 °C for 15 s, followed by annealing and extension at 60 °C for 60 s, repeated for 40 PCR cycles. Melting curve analyses were performed for each sample to ensure primer specificity. The experiment was performed in biological quadruplicates and technical quadruplicates.

[5] = molecular target: T2, His-tagged p38α (MAPK14), purified recombinant (human, UniProt Q16539-1 1-360); experiment: FRET or BRET; TR-FRET with purified His-p38α (10 nM) and GST-MK2 (1 uM), anti-His-d2 and anti-GST-Tb antibodies; 20 mM Tris-HCl pH 7.0, 50 mM NaCl, 0.01% NP-40; room temperature, 2 h; peptides or compounds added as competitors; settings: both partners purified
T2 construct: also called His-p38; His-p38α; source: E. coli BL21(DE3), purified (Ni-NTA, S200 size exclusion), in-house; or bought: Abcam AB271606; for the FP assay obtained from research collaborators

[6] = molecular target: T2, His-tagged p38α (MAPK14), purified …; experiment: fluorescence polarisation; 10 nM FITC-MK2 peptide with His-p38α serially diluted 2-fold from a 5 uM working solution; 20 mM Tris-HCl pH 7.0, 50 mM NaCl, 0.01% NP-40; 384-well plate; settings: both partners purified

T2 sequence (Q16539 whole entry): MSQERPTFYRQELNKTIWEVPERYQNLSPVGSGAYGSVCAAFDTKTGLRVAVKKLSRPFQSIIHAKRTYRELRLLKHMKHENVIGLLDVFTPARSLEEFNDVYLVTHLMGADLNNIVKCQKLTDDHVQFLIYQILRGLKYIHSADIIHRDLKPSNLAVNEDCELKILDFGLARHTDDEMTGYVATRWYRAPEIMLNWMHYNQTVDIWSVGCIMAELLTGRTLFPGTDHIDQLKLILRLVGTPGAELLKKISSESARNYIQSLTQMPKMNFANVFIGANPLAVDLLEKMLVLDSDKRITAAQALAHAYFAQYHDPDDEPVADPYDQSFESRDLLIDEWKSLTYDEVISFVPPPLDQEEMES
T1 sequence (Q16539 whole entry): as above
VF-tagged p38 / His-tagged MK2 346–400 docking peptide, sequence (Q16539 whole entry): as above

C=CC(=O)Nc1ccc2ncnc(Nc3ccc(OCc4cccc(F)c4)c(Cl)c3)c2c1 [AST-1306, N-[4-[3-chloro-4-[(3-fluorophenyl)methoxy]anilino]quinazolin-6-yl]prop-2-enamide;4-methylbenzenesulfonic acid]
620 nm Fold over Control (p38/MK2 interaction [1]): 1.01 | Pct of control (p38/MK2 interaction [1]): 9.2 Pct of control

CCc1cn(-c2cc(NC(=O)c3ccc(C)c(Nc4nccc(-c5cccnc5)n4)c3)cc(C(F)(F)F)c2)cn1 [Compound 2]
IC50 (p38/MK2 interaction [2]): 2.27 µM

Cc1cn(-c2cc(C(=O)Nc3ccc(C)c(Nc4nccc(-c5cccnc5)n4)c3)cc(C(F)(F)F)c2)cn1 [Compound 3]
IC50 (p38/MK2 interaction [2]): 7.45 µM

Cc1cn(-c2cc(NC(=O)c3ccc(O)c(Nc4nccc(-c5cccnc5)n4)c3)cc(C(F)(F)F)c2)cn1 [Compound 4]
IC50 (p38/MK2 interaction [2]): 8.24 µM

Cc1cn(-c2cc(NC(=O)c3ccc(C)c(Nc4ncccn4)c3)cc(C(F)(F)F)c2)cn1 [Compound 5]
IC50 (p38/MK2 interaction [2]): 11.5 µM

CNC(=O)c1ccc(CCNC(=O)C(=O)Nc2cc(-n3cnc(C)c3)cc(C(F)(F)F)c2)cc1 [Compound 6]
IC50 (p38/MK2 interaction [2]): 21.3 µM

Cc1cn(-c2cc(NC(=O)Nc3nnc(-c4ccncc4)s3)cc(C(F)(F)F)c2)cn1 [Compound 7]
inhibition at 30 µM (p38/MK2 interaction [2]): < 50%

Cc1cn(-c2cc(NC(=O)C(=O)NCc3cccc(C(N)=O)c3)cc(C(F)(F)F)c2)cn1 [Compound 8]
inhibition at 30 µM (p38/MK2 interaction [2]): < 50%

Cc1cn(-c2cc(NC(=O)c3[nH]cnc3C#N)cc(C(F)(F)F)c2)cn1 [Compound 9]
inhibition at 30 µM (p38/MK2 interaction [2]): < 50%

COc1ccc(CC(=O)Nc2cc(-n3cnc(C)c3)cc(C(F)(F)F)c2)nc1 [Compound 10]
inhibition at 30 µM (p38/MK2 interaction [2]): < 50%

CCCCCCCCCCCCc1ccc(S(=O)(=O)Nc2nncs2)cc1 [PHT-427, 4-dodecyl-N-(1,3,4-thiadiazol-2-yl)benzenesulfonamide]
620 nm Fold over Control (p38/MK2 interaction [1]): 0.94 | Pct of control (p38/MK2 interaction [1]): -2.49 Pct of control

O=c1ncn2nc(Sc3ccc(F)cc3F)ccc2c1-c1c(Cl)cccc1Cl [VX-745]
disruption of p38/MK2 interaction (TR-FRET signal) (p38/MK2 interaction [2]; recombinant p38 and MK2 purified from E. coli): failed to disrupt the interaction; also recorded: failed to reduce the TR-FRET signal

COc1cc2nc(N(C)CCCNC(=O)C3CCCO3)nc(N)c2cc1OC (stereo not drawn) [alfuzosin]
IC50 [3]: 14.4 µM | IC50 (p38/MK2 interaction [2]): 6.9 µM | inhibition of p38/MK2 interaction, primary screen (p38/MK2 interaction [1]): 82% | IC50 (p38/MK2 interaction [4]): 10 µM | LPS-induced TNF-α, IL-6, and IL-1β expression (HMC3 microglial cells): significantly (p-values <0.05) suppressed

C[C@@H]1[C@H](O)[C@@H](C)/C=C/C=C/C=C/C=C/C=C/C=C/C=C/[C@H](O[C@@H]2O[C@H](C)[C@@H](O)[C@H](N)[C@@H]2O)C[C@@H]2O[C@](O)(C[C@@H](O)C[C@@H](O)[C@H](O)CC[C@@H](O)C[C@@H](O)CC(=O)O[C@H]1C)C[C@H](O)[C@H]2C(=O)O [amphotericin B]
inhibition of p38/MK2 interaction, primary screen (p38/MK2 interaction [1]): 51%

CN1CCc2cccc3c2[C@H]1Cc1ccc(O)c(O)c1-3 [apomorphine]
inhibition of p38/MK2 interaction, primary screen (p38/MK2 interaction [1]): 56%

C=C(c1ccc(C(=O)O)cc1)c1cc2c(cc1C)C(C)(C)CCC2(C)C [bexarotene]
inhibition of p38/MK2 interaction, primary screen (p38/MK2 interaction [1]): 74%

CCOc1nc2cccc(C(=O)OC(C)OC(=O)OC3CCCCC3)c2n1Cc1ccc(-c2ccccc2-c2nnn[nH]2)cc1 (stereo not drawn) [candesartan cilexetil]
inhibition of p38/MK2 interaction, primary screen (p38/MK2 interaction [1]): 68%

Cc1cc(C(C#N)c2ccc(Cl)cc2)c(Cl)cc1NC(=O)c1cc(I)cc(I)c1O (stereo not drawn) [closantel]
inhibition of p38/MK2 interaction, primary screen (p38/MK2 interaction [1]): 53%

COc1cc2nc(N3CCN(C(=O)C4COc5ccccc5O4)CC3)nc(N)c2cc1OC (stereo not drawn) [doxazosin]
IC50 [3]: 4.6 µM | IC50 (p38/MK2 interaction [2]): 4.4 µM | inhibition of p38/MK2 interaction, primary screen (p38/MK2 interaction [1]): 58% | IC50 (p38/MK2 interaction [4]): 30.1 µM | LPS-induced TNF-α, IL-6, and IL-1β expression (HMC3 microglial cells): significantly (p-values <0.05) suppressed

CN(C)[C@@H]1C(O)=C(C(N)=O)C(=O)[C@@]2(O)C(O)=C3C(=O)c4c(O)cccc4[C@@](C)(O)[C@H]3[C@H](O)[C@@H]12 [oxytetracycline]
inhibition of p38/MK2 interaction, primary screen (p38/MK2 interaction [1]): 51%

CS(=O)(=O)c1ccc(C2=C(c3ccccc3)C(=O)OC2)cc1 [rofecoxib]
inhibition of p38/MK2 interaction, primary screen (p38/MK2 interaction [1]): 73%

COc1cc2nc(N3CCN(C(=O)C4CCCO4)CC3)nc(N)c2cc1OC (stereo not drawn) [terazosin]
IC50 [3]: 8.3 µM | IC50 (p38/MK2 interaction [2]): 6.2 µM | inhibition of p38/MK2 interaction, primary screen (p38/MK2 interaction [1]): 77% | IC50 (p38/MK2 interaction [4]): 10.5 µM | LPS-induced TNF-α, IL-6, and IL-1β expression (HMC3 microglial cells): significantly (p-values <0.05) suppressed

B1: FITC-MK2 370–393 peptide (peptide, UniProt P49137 370-393, looked up)
peptide: IKIKKIEDASNPLLLKRRKKARAL
modifications: not fully specified (N-terminus); also: FITC label (position not given here)
notes: MK2 (MAPKAPK2) C-terminal docking motif, residues 370-393 (I370-L393); the methods name the peptide 370-390; also called I370–L393; FITC conjugated MK2 370–390 peptide (methods); source: synthetic peptide, bought: GenScript
IC50 [5]: 0.42 µM | EC50 [6]: 0.0269 µM

B2: FITC-MK2 369–382 peptide (peptide, UniProt P49137 369-382, looked up)
peptide: QIKIKKIEDASNPL
modifications: not fully specified (N-terminus); also: FITC label (position not given here)
notes: MK2 (MAPKAPK2) C-terminal docking motif, residues 369-382 as named in the text; 369-382 would be 14 residues; the legend's I370-L382 is 13 residues; also called I370-L382; truncated 13-residue peptide
IC50 [5]: 4.26 µM
